Experimental findings from paper PMC5623949, “Exploiting the 2-Amino-1,3,4-thiadiazole Scaffold To Inhibit Trypanosoma brucei Pteridine Reductase in Support of Early-Stage Drug Discovery” (ACS Omega, 2017) are described below.

Structures are written as SMILES. Some results are limits rather than exact numbers.

Chain of CYP2C9 (P11712 whole entry, canonical isoform): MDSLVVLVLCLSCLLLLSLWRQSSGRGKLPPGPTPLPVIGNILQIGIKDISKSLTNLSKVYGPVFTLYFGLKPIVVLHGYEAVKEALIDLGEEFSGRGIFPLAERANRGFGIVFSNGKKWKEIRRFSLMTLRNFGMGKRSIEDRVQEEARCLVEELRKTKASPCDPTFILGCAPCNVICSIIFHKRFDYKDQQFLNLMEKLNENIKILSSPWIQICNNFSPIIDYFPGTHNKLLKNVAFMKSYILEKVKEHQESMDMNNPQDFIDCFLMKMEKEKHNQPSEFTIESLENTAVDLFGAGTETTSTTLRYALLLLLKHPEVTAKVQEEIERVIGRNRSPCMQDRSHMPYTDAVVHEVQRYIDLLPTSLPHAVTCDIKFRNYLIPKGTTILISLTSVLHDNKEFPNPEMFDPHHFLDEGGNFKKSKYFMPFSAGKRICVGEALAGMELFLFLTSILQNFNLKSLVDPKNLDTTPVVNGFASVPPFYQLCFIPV
Chain of CYP3A4 (P08684 whole entry, canonical isoform): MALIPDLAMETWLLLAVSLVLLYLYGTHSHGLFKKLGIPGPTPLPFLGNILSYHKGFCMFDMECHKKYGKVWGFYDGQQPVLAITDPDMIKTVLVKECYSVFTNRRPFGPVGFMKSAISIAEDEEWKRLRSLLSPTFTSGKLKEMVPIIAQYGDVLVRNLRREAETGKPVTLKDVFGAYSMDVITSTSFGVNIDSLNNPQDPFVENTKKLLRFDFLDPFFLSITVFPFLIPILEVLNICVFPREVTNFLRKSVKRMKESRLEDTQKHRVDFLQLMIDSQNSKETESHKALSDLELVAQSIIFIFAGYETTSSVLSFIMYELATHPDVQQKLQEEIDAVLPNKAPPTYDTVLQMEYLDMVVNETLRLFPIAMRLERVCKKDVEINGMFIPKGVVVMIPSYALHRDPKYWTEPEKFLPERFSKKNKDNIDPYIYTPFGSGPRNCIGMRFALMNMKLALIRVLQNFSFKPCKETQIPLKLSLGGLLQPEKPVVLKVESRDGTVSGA

Tested on in the first data set: not listed separately
The data set is described as follows: in vitro. Further details: cytotoxicity, per cent cell growth of WI-38 fibroblasts. The note with it: human, wi-38 cells; read-out: % cell growth W1-38 at 10uM. On the procedure:
(§1) Independent of the effect of any antiparasitic potential of compounds, they were evaluated using a panel of early-toxicity assays comprising cytotoxicity (A549, human lung adenocarcinoma epithelial cell line and WI-38, human lung fibroblasts), mitochondrial toxicity (786-O, human renal carcinoma cell line), hERG inhibition,[31] cytochrome P450 inhibition (CYP1A2, CYP2C9, CYP2C19, CYP2D6, and CYP3A4),[31] and Aurora B kinase inhibition. […] For the two compounds active against TbPTR1 (4m and 4o), IC50 against hERG, cytochrome P450, and mitochondrial toxicity were determined (reported in Supporting Information). We observed that the dose of compounds 4m, 4o, 4c, and 3k was 4 μM in the potentiation assays. […] In the case of hERG, CYP2D6, CYP2A9, CYP2C19, and mitochondrial toxicity, there is a selectivity index of around 3–4 fold, thus showing an acceptable profile.  Figure 10 Summary heat map of the in vitro assays to determine possible liability issues for all synthesized compounds. Assays were performed to assess inhibition of hERG and five CYP isoforms (1A2, 2C9, 2C19, 2D6, and 3A4), growth inhibition of A549 and W1-38 cell lines, and mitochondrial toxicity at 10 μM. The hDHFR inhibition was determined at 100 μM. The data, expressed as percentage values, were organized by adopting a color code for rapid and intuitive visualization. The ideal compound should have all tiles blue, indicating a safe toxicological profile for progressing into the development pipeline. The cells are colored from blue (100% of cell growth at the tested concentration) to red (0% of cell growth at the tested concentration) for A549 and W1-38 and from blue (0% of inhibitory activity at the tested concentration) to red (100% of inhibitory activity at the tested concentration) for CYP isoforms, hERG, hDHFR, and mitochondrial toxicity.
On to `Nc1nnc(CCc2ccccc2)s1` [3g], for which the viability at 10 µM was determined as 101 ± 17.5%.
Turning to `Nc1nnc(NCc2ccc(F)cc2)s1` [4g], the viability at 10 µM worked out at 97.1 ± 30.2%.
For `COc1cc(-c2nnc(N)s2)cc(OC)c1OC` [1e], the viability at 10 µM was 105 ± 22.3%.
Same read-out and setting: under `Nc1nnc(-c2ccc(-c3ccccc3)cc2)s1` [2a] stands 90.7 ± 4.9%; under `Nc1nnc(CCC(=O)c2ccccc2)s1` [3j], 113 ± 8%.

The next data set addresses T1, TbPTR1 (Trypanosoma brucei brucei, UniProt O76290).
T1 construct: made in house
T1 sequence (O76290 1-268): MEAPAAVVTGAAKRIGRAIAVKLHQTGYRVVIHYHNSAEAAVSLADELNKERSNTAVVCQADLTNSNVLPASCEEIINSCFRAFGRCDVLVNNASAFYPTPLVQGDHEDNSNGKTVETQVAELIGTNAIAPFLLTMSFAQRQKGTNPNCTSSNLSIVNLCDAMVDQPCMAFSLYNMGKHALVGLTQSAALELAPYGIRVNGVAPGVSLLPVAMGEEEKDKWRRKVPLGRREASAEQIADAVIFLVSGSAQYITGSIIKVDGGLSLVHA
The data set is described as follows: biochemical. To be noted: 50 μM compound; read-out: % Inhibition TbPTR1 at 50 μM.
By inhibition is commonly meant the relative decrease from the control value, in per cent. For `Nc1nnc(CCc2ccccc2)s1` [3g], the inhibition at 50 µM turned out to be 7.6 ± 0.3%.
For `Nc1nnc(NCc2ccc(F)cc2)s1` [4g], the inhibition at 50 µM amounted to 14.7 ± 1.7%.
Same read-out and setting: under `COc1cc(-c2nnc(N)s2)cc(OC)c1OC` [1e] stands 13.5 ± 0.4%.
The same measure, in the same setting: under `CN(C)C(=O)NCc1cccc(-c2nnc(N)s2)c1` [1q] stands 2.5 ± 0.2%.
On to `Nc1nnc(-c2ccc(-c3ccccc3)cc2)s1` [2a], for which the inhibition at 50 µM came out at 10.8 ± 0.4%.
Same read-out and setting: the same measure for `Nc1nnc(CCC(=O)c2ccccc2)s1` [3j]: 12.9 ± 0.7%.

For the next data set, the target named is T2, hERG (Homo sapiens, UniProt Q12809).
T2 construct: gene KCNH2
T2 sequence (Q12809 whole entry): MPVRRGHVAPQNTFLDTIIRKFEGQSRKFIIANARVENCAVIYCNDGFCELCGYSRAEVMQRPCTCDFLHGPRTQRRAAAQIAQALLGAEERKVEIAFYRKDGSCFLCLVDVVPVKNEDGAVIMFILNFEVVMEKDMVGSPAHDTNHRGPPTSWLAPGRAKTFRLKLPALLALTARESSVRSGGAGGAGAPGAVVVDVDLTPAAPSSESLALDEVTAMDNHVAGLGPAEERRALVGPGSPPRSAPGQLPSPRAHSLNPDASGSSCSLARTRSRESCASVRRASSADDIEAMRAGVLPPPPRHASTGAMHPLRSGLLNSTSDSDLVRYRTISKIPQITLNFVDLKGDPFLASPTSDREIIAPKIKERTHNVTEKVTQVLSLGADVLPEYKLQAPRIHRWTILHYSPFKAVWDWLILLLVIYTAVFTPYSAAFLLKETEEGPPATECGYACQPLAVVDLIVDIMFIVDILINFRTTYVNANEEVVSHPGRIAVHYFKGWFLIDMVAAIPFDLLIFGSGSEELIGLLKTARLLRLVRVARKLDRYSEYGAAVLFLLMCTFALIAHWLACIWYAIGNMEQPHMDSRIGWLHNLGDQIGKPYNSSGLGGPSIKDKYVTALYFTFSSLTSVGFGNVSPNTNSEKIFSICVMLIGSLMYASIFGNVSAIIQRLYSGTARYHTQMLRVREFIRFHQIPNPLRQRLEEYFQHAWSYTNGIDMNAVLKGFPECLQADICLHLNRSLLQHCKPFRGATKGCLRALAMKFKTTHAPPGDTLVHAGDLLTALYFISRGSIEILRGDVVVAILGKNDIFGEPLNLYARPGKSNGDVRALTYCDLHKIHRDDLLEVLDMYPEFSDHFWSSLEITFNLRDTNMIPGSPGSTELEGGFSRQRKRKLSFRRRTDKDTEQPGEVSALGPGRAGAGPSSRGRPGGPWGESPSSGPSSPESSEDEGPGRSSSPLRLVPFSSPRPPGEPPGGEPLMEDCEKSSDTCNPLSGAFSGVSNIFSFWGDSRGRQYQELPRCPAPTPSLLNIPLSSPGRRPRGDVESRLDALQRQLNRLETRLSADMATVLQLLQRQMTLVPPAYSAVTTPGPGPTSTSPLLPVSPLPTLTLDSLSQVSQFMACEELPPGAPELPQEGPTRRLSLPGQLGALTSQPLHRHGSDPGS
Assay: not given
Further details: hERG inhibition liability assay.
Settings: not given
On the procedure:
as §1
Turning to `Nc1nnc(CCc2ccccc2)s1` [3g], the inhibition at 10 µM is -1.9 ± 1.3%.
On the same count and under the same terms, the same measure for `Nc1nnc(NCc2ccc(F)cc2)s1` [4g]: 96.9 ± 6.1%.
On to `COc1cc(-c2nnc(N)s2)cc(OC)c1OC` [1e], for which the inhibition at 10 µM came out at 1 ± 1.9%.
In the case of `Nc1nnc(CCC(=O)c2ccccc2)s1` [3j], the inhibition at 10 µM was -2.3 ± 10.2%.

Tested on in another data set: not listed separately
The data set is described as follows: in vitro. Further details: cytotoxicity, per cent cell growth of A549 cells. To be noted: human, a549 cells; read-out: % cell growth A549 at 10uM. The procedure: as §1
As for `Nc1nnc(CCc2ccccc2)s1` [3g], the viability at 10 µM turned out to be 109 ± 13.4%.
Still for that read-out and setting: under `Nc1nnc(NCc2ccc(F)cc2)s1` [4g] stands 110 ± 8%; under `COc1cc(-c2nnc(N)s2)cc(OC)c1OC` [1e], 114 ± 6.2%.
On to `Nc1nnc(-c2ccc(-c3ccccc3)cc2)s1` [2a], for which the viability at 10 µM was 142 ± 7.3%.
In the case of `Nc1nnc(CCC(=O)c2ccccc2)s1` [3j], the viability at 10 µM was 138 ± 8.8%.

In a further data set the target is CYP2D6 (Homo sapiens, UniProt P10635). The data set is described as follows: in vitro. Details: cytochrome P450 isoform inhibition liability assay.
Chain of CYP2D6 (P10635 whole entry, canonical isoform): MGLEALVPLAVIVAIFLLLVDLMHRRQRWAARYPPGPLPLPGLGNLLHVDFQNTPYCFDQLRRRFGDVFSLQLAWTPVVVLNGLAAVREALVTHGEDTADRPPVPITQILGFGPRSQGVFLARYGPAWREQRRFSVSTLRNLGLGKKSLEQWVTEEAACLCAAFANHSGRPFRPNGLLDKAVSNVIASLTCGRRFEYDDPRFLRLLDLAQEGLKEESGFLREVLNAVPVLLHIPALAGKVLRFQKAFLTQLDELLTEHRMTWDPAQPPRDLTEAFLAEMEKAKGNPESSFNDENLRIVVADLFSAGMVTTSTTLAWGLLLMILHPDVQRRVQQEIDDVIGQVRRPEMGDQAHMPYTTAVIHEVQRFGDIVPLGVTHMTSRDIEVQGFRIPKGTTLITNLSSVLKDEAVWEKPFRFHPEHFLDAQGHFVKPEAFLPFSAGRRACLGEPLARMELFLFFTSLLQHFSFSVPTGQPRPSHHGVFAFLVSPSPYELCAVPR
Settings: not given
On the procedure:
as §1
As to `Nc1nnc(CCc2ccccc2)s1` [3g], the inhibition at 10 µM is -43.9 ± 4.1%.
On the same count and under the same terms, the same measure for `Nc1nnc(NCc2ccc(F)cc2)s1` [4g]: 103.1 ± 0.6%; for `COc1cc(-c2nnc(N)s2)cc(OC)c1OC` [1e]: -37.2 ± 7.9%; for `CN(C)C(=O)NCc1cccc(-c2nnc(N)s2)c1` [1q]: 20.4 ± 3.5%.
For `Nc1nnc(-c2ccc(-c3ccccc3)cc2)s1` [2a], the inhibition at 10 µM was 45.4 ± 3.1%.
Still for that read-out and setting: the same measure for `Nc1nnc(CCC(=O)c2ccccc2)s1` [3j]: -30.6 ± 5.9%.

For a further data set, the target named is CYP2C19 (Homo sapiens, UniProt P33261). The data set is described as follows: in vitro. Further details: cytochrome P450 isoform inhibition liability assay.
Chain of CYP2C19 (P33261 whole entry, canonical isoform): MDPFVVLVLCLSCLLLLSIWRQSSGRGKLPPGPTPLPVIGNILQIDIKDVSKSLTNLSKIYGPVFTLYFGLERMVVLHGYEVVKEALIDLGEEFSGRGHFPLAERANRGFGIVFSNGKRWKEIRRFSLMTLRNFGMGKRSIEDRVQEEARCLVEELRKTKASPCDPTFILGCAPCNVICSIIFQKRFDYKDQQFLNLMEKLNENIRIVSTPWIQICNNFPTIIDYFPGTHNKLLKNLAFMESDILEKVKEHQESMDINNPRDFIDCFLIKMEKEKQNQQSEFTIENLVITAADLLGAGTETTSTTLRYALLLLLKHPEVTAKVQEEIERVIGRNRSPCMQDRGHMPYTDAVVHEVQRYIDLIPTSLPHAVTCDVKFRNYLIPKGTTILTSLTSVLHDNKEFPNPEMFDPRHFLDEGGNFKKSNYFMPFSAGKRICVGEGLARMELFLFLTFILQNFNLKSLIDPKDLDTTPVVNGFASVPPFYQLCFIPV
Settings: not given
On the procedure: as §1
For the compound `Nc1nnc(CCc2ccccc2)s1` [3g], the inhibition at 10 µM is -36.5 ± 6.1%.
The same measure, in the same setting: the same measure for `Nc1nnc(NCc2ccc(F)cc2)s1` [4g]: -13.9 ± 11.1%; for `COc1cc(-c2nnc(N)s2)cc(OC)c1OC` [1e]: -18.5 ± 3.7%; for `CN(C)C(=O)NCc1cccc(-c2nnc(N)s2)c1` [1q]: 19.6 ± 8.2%.
On the same count and under the same terms, the same measure for `Nc1nnc(-c2ccc(-c3ccccc3)cc2)s1` [2a]: 95.8 ± 0.7%; for `Nc1nnc(CCC(=O)c2ccccc2)s1` [3j]: -35.4 ± 6.6%.

The next data set concerns the target CYP3A4 (Homo sapiens, UniProt P08684). The data set is described as follows: in vitro. Details: cytochrome P450 isoform inhibition liability assay.
Settings: not given
On the procedure: as §1
As to `Nc1nnc(CCc2ccccc2)s1` [3g], the inhibition at 10 µM is -25.6 ± 10.5%.
Still for that read-out and setting: under `Nc1nnc(NCc2ccc(F)cc2)s1` [4g] stands 11.2 ± 3.1%; under `COc1cc(-c2nnc(N)s2)cc(OC)c1OC` [1e], -11.2 ± 10.3%.
In the case of `CN(C)C(=O)NCc1cccc(-c2nnc(N)s2)c1` [1q], the inhibition at 10 µM came out at 4.5 ± 11.4%.
For the compound `Nc1nnc(-c2ccc(-c3ccccc3)cc2)s1` [2a], the inhibition at 10 µM came to 50.6 ± 3.7%.
With `Nc1nnc(CCC(=O)c2ccccc2)s1` [3j], the inhibition at 10 µM is -22.9 ± 7.1%.

A further data set deals with T3, CYP1A2 (Homo sapiens, UniProt P05177).
T3 sequence (P05177 1-516): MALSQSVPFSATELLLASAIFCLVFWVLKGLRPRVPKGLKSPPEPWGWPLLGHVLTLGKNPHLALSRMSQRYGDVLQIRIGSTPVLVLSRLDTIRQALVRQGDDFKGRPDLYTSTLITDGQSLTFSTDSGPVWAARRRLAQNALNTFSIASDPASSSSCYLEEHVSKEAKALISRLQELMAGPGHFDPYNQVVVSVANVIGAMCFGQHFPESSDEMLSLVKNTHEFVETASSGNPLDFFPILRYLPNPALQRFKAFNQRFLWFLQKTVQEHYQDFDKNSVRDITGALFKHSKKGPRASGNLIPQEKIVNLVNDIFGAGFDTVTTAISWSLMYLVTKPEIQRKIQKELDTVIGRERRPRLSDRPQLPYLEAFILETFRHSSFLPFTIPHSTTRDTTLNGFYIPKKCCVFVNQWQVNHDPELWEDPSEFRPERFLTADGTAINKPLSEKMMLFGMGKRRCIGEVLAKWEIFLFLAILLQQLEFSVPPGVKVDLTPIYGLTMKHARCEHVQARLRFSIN
The data set is described as follows: in vitro. Details: cytochrome P450 isoform inhibition liability assay.
Settings: not given
The procedure: as §1
`Nc1nnc(CCc2ccccc2)s1` [3g]: the inhibition at 10 µM is -14.9 ± 5.7%.
The same measure, in the same setting: under `Nc1nnc(NCc2ccc(F)cc2)s1` [4g] stands 24.9 ± 2.6%.
For `COc1cc(-c2nnc(N)s2)cc(OC)c1OC` [1e], the inhibition at 10 µM came out at 2.55 ± 3.9%.
As to `CN(C)C(=O)NCc1cccc(-c2nnc(N)s2)c1` [1q], the inhibition at 10 µM was 7 ± 1.9%.
Take `Nc1nnc(-c2ccc(-c3ccccc3)cc2)s1` [2a]: the inhibition at 10 µM turned out to be 98.9 ± 0.4%.
For the compound `Nc1nnc(CCC(=O)c2ccccc2)s1` [3j], the inhibition at 10 µM was -13.4 ± 12.3%.

A further data set concerns the target CYP2C9 (Homo sapiens, UniProt P11712). The data set is described as follows: in vitro. Details: cytochrome P450 isoform inhibition liability assay.
Settings: not given
On the procedure: as §1
With `Nc1nnc(CCc2ccccc2)s1` [3g], the inhibition at 10 µM was -10.5 ± 3.7%.
The same measure, in the same setting: the same measure for `Nc1nnc(NCc2ccc(F)cc2)s1` [4g]: 22.9 ± 1.3%; for `COc1cc(-c2nnc(N)s2)cc(OC)c1OC` [1e]: -12.4 ± 3.9%.
Still for that read-out and setting: the same measure for `CN(C)C(=O)NCc1cccc(-c2nnc(N)s2)c1` [1q]: 19.7 ± 3.6%; for `Nc1nnc(-c2ccc(-c3ccccc3)cc2)s1` [2a]: 76.7 ± 0.5%; for `Nc1nnc(CCC(=O)c2ccccc2)s1` [3j]: -30.6 ± 6.8%.

In another data set the test system is T. b. brucei Lister 427 bloodstream forms. The data set is described as follows: In vitro activity against T. brucei (HTS SYBR Green I growth inhibition assay). The data set is classed as cell-based, Trypanosoma brucei brucei. The note with it: Trypanosoma brucei, 50 μM; standard deviation within ±10% of the value; read-out: % Inhibition T. brucei at 50 μM.
For the compound `Nc1nnc(CCc2ccccc2)s1` [3g], the inhibition at 50 µM is below 0%.
On the same count and under the same terms, under `Nc1nnc(NCc2ccc(F)cc2)s1` [4g] stands 33%; under `COc1cc(-c2nnc(N)s2)cc(OC)c1OC` [1e], 1.4%.
Turning to `CN(C)C(=O)NCc1cccc(-c2nnc(N)s2)c1` [1q], the inhibition at 50 µM turned out to be 1.2%.
For `Nc1nnc(-c2ccc(-c3ccccc3)cc2)s1` [2a], the inhibition at 50 µM was 43.1%.
Still for that read-out and setting: the same measure for `Nc1nnc(CCC(=O)c2ccccc2)s1` [3j]: 1.2%.

A further data set concerns 786-O. The data set is described as follows: cells. Details: mitochondrial toxicity in 786-O renal carcinoma cells. The note with it: Homo sapiens, 786-0; mitochondrial toxicity. The procedure:
as §1
As for `Nc1nnc(CCc2ccccc2)s1` [3g], the inhibition at 10 µM stood at 4 ± 16.1%.
For the compound `Nc1nnc(NCc2ccc(F)cc2)s1` [4g], the inhibition at 10 µM is -8.3 ± 12.6%.
Take `Nc1nnc(-c2ccc(-c3ccccc3)cc2)s1` [2a]: the inhibition at 10 µM amounted to 11.1 ± 4.1%.
